Reference: patent publication US9840508B2, “N-acyl-(3-substituted)-(8-methyl)-5,6-dihydro-[1,2,4]triazolo[4,3-a] pyrazines as selective NK-3 receptor antagonists, pharmaceutical composition, methods for use in NK-3 receptor-mediated disorders” (EUROSCREEN SA, priority 2013, dated 2017)

Tests used:
human NK-2 receptor = human NK-2 receptor (Homo sapiens (Human), UniProt P21452); experiment: Selectivity binding assay, human NK-2 ([125I]-Neurokinin A); conditions: CHO cell membranes; 0.1 nM [125I]-Neurokinin A; read-out: hNK-2 (Ki)
Method: Selectivity of the compounds of the invention was determined over the other human NK receptors, namely NK-1 and NK-2 receptors.
The affinity of compounds of the invention for the NK-2 receptor was evaluated in CHO recombinant cells which express the human NK-2 receptor. Membrane suspensions were prepared from these cells. The following radioligand [^125I]-Neurokinin A (PerkinElmer Cat#NEX252) was used in this assay. Binding assays were performed in a 25 mM HEPES/1 mM CaCl2/5 mM MgCl2/0.5% BSA/10 μg/ml saponin, at pH 7.4. Binding assays consisted of 25 μl of membrane suspension (approximately 3.75 μg of protein/well in a 96 well plate), 50 μl of compound or reference ligand (Neurokinin A) at increasing concentrations (diluted in assay buffer) and 0.1 nM [^125I]-Neurokinin A. The plate was incubated 60 min at 25° C. in a water bath and then filtered over GF/C filters (Perkin Elmer, 6005174, presoaked in assay buffer without saponine for 2 h at room temperature) with a Filtration unit (Perkin Elmer). The radioactivity retained on the filters was measured by using the TopCount-NXT reader (Packard). Competition curves were obtained for compounds of the invention and the concentrations of compounds which displaced 50% of bound radioligand (IC50) were determined and then apparent inhibition constant Ki values were calculated by the following equation: Ki=IC50/(1+[L]/KD) where [L] is the concentration of free radioligand and KD is its dissociation constant at the receptor, derived from saturation binding experiments (Cheng and Prusoff, 1973).

circulating LH levels = experiment: Castrated male rat model, circulating luteinizing hormone (LH), oral dosing; type: in vivo; conditions: castrated male SD rat; single oral dose less than or equal to 30 mg/kg; p<0.05
Method: In vivo Assay to Assess Compound Activity in Rat (Oral Dosing)
The effect of compounds of the invention to inhibit luteinizing hormone (LH) secretion is determined by the following biological studies.
Castrated Male Rat Model to Assess the Effect of Compound of Invention on Circulating Levels of Luteinizing Hormone (LH)
In humans and rodents, castration is well-precedented to permit heightened, persistent GnRH signaling and consequent elevation of circulating LH. Thus, a castrated rat model is used to provide a broad index for measurement of LH inhibition as a marker of test compound inhibition of the GnRH signaling pathway.
Castrated adult male Sprague-Dawley (SD) rats (150-175 g) were purchased from Janvier (St Berthevin, France). All animals were housed 2 per cage in a temperature-controlled room (22±2° C.) and 50±5% relative humidity with a 12 hour/12 hour light/dark cycles (lights off at 6 h00 pm). The animals were allowed 3 weeks of postoperative recovery prior to study. Animals were handled on a daily basis. Standard diet and tap water were provided ad libitum. Animal cage litters were changed once a week. […]
After basal sampling (TO) a single dose of compounds of the invention or vehicle was administrated orally to rats. […] Serum LH levels were determined using radioimmunoassay kit from RIAZEN—Rat LH, Zentech (Liège, Belgium). […]

hERG channel = hERG channel (Homo sapiens (Human), UniProt Q12809); experiment: hERG inhibition assay (manual patch-clamp, HEK 293 cells); type: cell-based; conditions: HEK 293 cells stably transfected with hERG, read-out: CardioSafety (hERG IC50)
Source text: The human ether-a-go-go related gene (hERG) encodes the inward rectifying voltage gated potassium channel in the heart (IKr) which is involved in cardiac repolarisation. […] IKr current inhibition accounts for the vast majority of known cases of drug-induced QT-prolongation. A number of drugs have been withdrawn from late stage clinical trials due to these cardiotoxic effects, therefore it is important to identify inhibitors early in drug discovery.
The hERG inhibition study aims at quantifying the in vitro effects of compounds of the invention on the potassium-selective IKr current generated in normoxic conditions in stably transfected HEK 293 cells with the human ether-a-go-go-related gene (hERG).
Whole-cell currents (acquisition by manual patch-clamp) elicited during a voltage pulse were recorded in baseline conditions and following application of tested compounds (5 minutes of exposure). The concentrations of tested compounds (0.3 μM; 3 μM; 10 μM; 30 μM) reflect a range believed to exceed the concentrations at expected efficacy doses in preclinical models. […]
The current density recorded were normalized against the baseline conditions and corrected for solvent effect and time-dependent current run-down using experimental design in test compound free conditions. […]

Chain of human NK-2 receptor (P21452 whole entry): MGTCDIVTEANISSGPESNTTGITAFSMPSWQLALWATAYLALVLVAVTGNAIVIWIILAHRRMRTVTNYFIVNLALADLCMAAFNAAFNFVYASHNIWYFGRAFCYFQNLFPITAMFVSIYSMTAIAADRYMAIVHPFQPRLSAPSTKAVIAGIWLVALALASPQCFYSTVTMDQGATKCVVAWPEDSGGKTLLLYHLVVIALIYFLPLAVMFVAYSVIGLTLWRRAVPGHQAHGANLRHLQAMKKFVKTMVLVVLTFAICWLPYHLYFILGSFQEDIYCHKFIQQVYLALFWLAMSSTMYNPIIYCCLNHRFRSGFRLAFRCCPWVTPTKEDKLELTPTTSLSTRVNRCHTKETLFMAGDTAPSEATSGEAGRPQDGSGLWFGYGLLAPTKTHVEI
Chain of hERG channel (Q12809 whole entry): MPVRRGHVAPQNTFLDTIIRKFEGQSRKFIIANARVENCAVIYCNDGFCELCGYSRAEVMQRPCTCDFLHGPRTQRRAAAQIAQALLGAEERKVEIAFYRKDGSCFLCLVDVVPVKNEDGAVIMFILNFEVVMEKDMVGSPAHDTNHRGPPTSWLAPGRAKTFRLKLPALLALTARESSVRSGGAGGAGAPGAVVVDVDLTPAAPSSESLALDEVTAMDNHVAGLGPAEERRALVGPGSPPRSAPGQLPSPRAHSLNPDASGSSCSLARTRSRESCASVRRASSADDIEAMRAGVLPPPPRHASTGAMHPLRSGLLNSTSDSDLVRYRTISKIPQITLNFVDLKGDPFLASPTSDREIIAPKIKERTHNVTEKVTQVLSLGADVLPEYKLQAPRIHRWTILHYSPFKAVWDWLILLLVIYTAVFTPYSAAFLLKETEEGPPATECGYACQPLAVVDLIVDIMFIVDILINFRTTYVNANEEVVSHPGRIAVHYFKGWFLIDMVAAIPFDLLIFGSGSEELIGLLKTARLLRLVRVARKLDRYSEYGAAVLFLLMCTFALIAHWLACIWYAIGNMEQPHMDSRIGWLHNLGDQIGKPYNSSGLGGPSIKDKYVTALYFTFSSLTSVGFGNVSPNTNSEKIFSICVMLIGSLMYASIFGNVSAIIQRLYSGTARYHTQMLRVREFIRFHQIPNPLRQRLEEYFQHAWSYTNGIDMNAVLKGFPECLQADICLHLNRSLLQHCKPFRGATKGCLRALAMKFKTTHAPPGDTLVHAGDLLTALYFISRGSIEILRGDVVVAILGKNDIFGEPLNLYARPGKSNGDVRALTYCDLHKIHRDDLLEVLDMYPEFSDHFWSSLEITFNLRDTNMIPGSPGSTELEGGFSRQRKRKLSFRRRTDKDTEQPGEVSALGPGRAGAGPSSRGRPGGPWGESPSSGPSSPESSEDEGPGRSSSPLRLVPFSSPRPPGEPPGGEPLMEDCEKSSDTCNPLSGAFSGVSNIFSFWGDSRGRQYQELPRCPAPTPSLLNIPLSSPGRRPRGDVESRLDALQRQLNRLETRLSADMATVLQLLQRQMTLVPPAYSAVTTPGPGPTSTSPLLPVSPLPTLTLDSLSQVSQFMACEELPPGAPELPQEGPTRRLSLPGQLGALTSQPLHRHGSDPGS

Ki (human NK-2 receptor) [µM]	SMILES	Suppression of circulating LH levels (circulating LH levels)	IC50 (hERG channel) [µM]
52	Cc1ccc(-c2nnc3n2CCN(C(=O)c2ccc(F)cc2)[C@@H]3C)o1 [Compound 1, (R)-(4-fluorophenyl)(8-methyl-3-(5-methylfuran-2-yl)-5,6-dihydro-[1,2,4]triazolo[4,3-a]pyrazin-7(8H)-yl)methanone]	significantly suppressed circulating LH levels	31
6.6	C[C@@H]1c2nnc(-c3csc(C(F)(F)F)n3)n2CCN1C(=O)c1ccc(F)cc1 [Compound 3, (R)-(4-fluorophenyl)(8-methyl-3-(2-(trifluoromethyl)thiazol-4-yl)-5,6-dihydro-[1,2,4]triazolo[4,3-a]pyrazin-7(8H)-yl)methanone]		70
